# What was measured:
# [1] = Differential scanning calorimetry (DSC), glass transition temperature; format: physicochemical
# Source text: Differential Scanning Calorimetry (DSC):
# (§1) The compound (3) is excellent in heat resistance.
# The compound is excellent in heat resistance.
# [2] = Solubility test in heated toluene; format: physicochemical
# Experimental: 500 mL of heated toluene was needed to dissolve 1 g of the compound (2), but 50 mL of heated toluene was needed to dissolve 1 g of the compound (3).
# 500 mL of heated toluene was needed to dissolve 1 g of the compound (2), but 50 mL of heated toluene was needed to dissolve 1 g of the compound (4).
# [3] = Thermogravimetric measurement/differential thermal analysis (TG/DTA); format: physicochemical
# Experimental: Thermogravimetric Measurement/Differential Thermal Analysis (TG/DTA):
# as §1
# (§2) The residual on the vacuum evaporation boat before and after vacuum evaporation of the compound (3) was analyzed by high performance liquid chromatography, showing that the residual on the vacuum evaporation boat before and after vacuum evaporation was in fact found to have a purity of 100.00%.
# (§3) In contrast, the compound (2) starts decomposition at a temperature of 412° C. as shown by the TG/DTA measurement. Since the temperature is close to the above-mentioned vacuum evaporation temperature (415° C.), it is expected that the compound (2) is accompanied by thermal decomposition at the vacuum evaporation temperature.
# The compound (4) is excellent in heat resistance.
# [4] = Vacuum evaporation temperature test with HPLC of boat residual; format: physicochemical; settings: for purity of residual on the vacuum evaporation boat after vacuum evaporation / purity of residual on the vacuum evaporation boat before vacuum evaporation: HPLC; for purity of residual on the vacuum evaporation boat after vacuum evaporation: after vacuum evaporation (thermal stability); for temperature needed to obtain an evaporation rate of 5 Å/second: vacuum evaporation
# Experimental: (Vacuum Evaporation Temperature Test)
# as §2, §3
# Cyclic voltammetry (CV) = format: physicochemical; settings: for stability in repetition: repeated oxidation-reduction
# [5] = prior art, JP-A-2004-155754; cited from earlier work
SMILES,glass transition temperature (Tg) [1],heated toluene needed to dissolve 1 g of the compound [2] [mL],temperature at which decomposition starts [3] [°C],purity of residual on the vacuum evaporation boat after vacuum evaporation [4] [%],purity of residual on the vacuum evaporation boat before vacuum evaporation [4] [%],temperature needed to obtain an evaporation rate of 5 Å/second [4] [°C],decomposition temperature [3] [°C],oxidation potential (Cyclic voltammetry (CV)),reversibility of oxidation-reduction process (Cyclic voltammetry (CV)),stability in repetition (Cyclic voltammetry (CV)),glass transition temperature [5] [°C]
"Cc1ccc(-c2ccc(N(c3ccc(C)cc3)c3cc(N(c4ccc(C)cc4)c4ccc(-c5ccc(C)cc5)cc4)cc(N(c4ccc(C)cc4)c4ccc(-c5ccc(C)cc5)cc4)c3)cc2)cc1 [compound (1), 1,3,5-tris(N-(4′-methyl-4-biphenylyl)-N-(4-methylphenyl)amino)benzene, reference compound]",103 °C,–,–,–,–,–,–,–,–,–,–
"Cc1ccc(-c2ccc(N(c3ccc(-c4ccc(C)cc4)cc3)c3cc(N(c4ccc(-c5ccc(C)cc5)cc4)c4ccc(-c5ccc(C)cc5)cc4)cc(N(c4ccc(-c5ccc(C)cc5)cc4)c4ccc(-c5ccc(C)cc5)cc4)c3)cc2)cc1 [compound (2), 1,3,5-tris(N,N-bis(4′-methyl-4-biphenylyl)amino)benzene, reference compound]",no glass transition temperature,500,412,95.87,99.03,415,–,–,–,–,–
"Cc1ccc(-c2ccc(N(c3ccc(-c4ccc(C)cc4)cc3)c3cc(N(c4ccc(C)cc4)c4ccc(C)cc4)cc(N(c4ccc(-c5ccc(C)cc5)cc4)c4ccc(-c5ccc(C)cc5)cc4)c3)cc2)cc1 [compound (3), N,N,N′,N′-tetrakis(4′-methyl-4-biphenylyl)-N″,N″-bis(4-methylphenyl)benzene-1,3,5-triamine]",179 °C,50,430,100.00,100.00,350,478,0.52 V (vs. Ag/Ag^+),excellent,good,–
"Cc1ccc(N(c2ccc(C)cc2)c2cc(N(c3ccc(-c4ccccc4)cc3)c3ccc(-c4ccccc4)cc3)cc(N(c3ccc(-c4ccccc4)cc3)c3ccc(-c4ccccc4)cc3)c2)cc1 [compound (4), N,N,N′,N′-tetrakis(4-biphenylyl)-N″,N″-bis(4-methylphenyl)benzene-1,3,5-triamine]",133 °C,50,498,99.64,99.30,340,498,0.54 V (vs. Ag/Ag^+),excellent,good,–
"Cc1ccc(N(c2ccc(-c3ccccc3)cc2)c2cc(N(c3ccc(C)cc3)c3ccc(-c4ccccc4)cc3)cc(N(c3ccc(C)cc3)c3ccc(-c4ccccc4)cc3)c2)cc1 [p-MTPBAB, 1,3,5-tris(N-(p-methylphenyl)-N-(4-biphenylyl)amino)benzene]",–,–,–,–,–,–,–,–,–,–,98
"Cc1ccc(N(c2cc(N(c3ccc(C)cc3)c3cccc4ccccc34)cc(N(c3ccc(C)cc3)c3cccc4ccccc34)c2)c2cccc3ccccc23)cc1 [p-MTPNAB, 1,3,5-tris(N-(p-methylphenyl)-N-(1-naphthyl))-amino benzene]",–,–,–,–,–,–,–,–,–,–,87

# — patent US8029920B2, “1,3,5-tris(diarylamino)benzenes and use thereof” (Bando Chemical Industries, Ltd, priority 2006, dated 2011)
